Measurements as given in patent publication US8513010B2, “Dendritic cells pulsed with a bisphosphonate” (Medinet Co. Ltd., priority 2004, dated 2013).

Legend:
γδ T-cells [1] = assay: Culture of peripheral blood mononuclear cells with Aredia and IL-2, phenotype by flow cytometer (Example 4); type: cell-based, human; settings: peripheral blood monocyte suspension, Aredia 10 μM, IL-2 1,000 U/ml, cultivated 14 days
Method: From a healthy donor 30 ml of peripheral blood was collected, and peripheral blood mononuclear cells were collected using a density gradient medium for blood cell separation. The cells collected were washed several times to remove platelets and the like.
The peripheral blood monocytes obtained were suspended in AIM-V medium (10% FCS), and Aredia was added so that the concentration in the peripheral blood monocyte suspension was 10 μM.
This was cultivated for 14 days. During this period, AIM-V (10% FCS) medium and IL-2, at a final concentration of 1,000 U/ml, were added in accordance with the cell proliferation.
Using a flow cytometer, the phenotype of the cells cultured was confirmed to be a cell subset containing at least 95% of γδ T-cells.

γδ T-cells [2] = assay: IFN-γ ELISpot confirming activation of γδ T-cells (Example 5); type: cell-based, human; settings: 30,000 γδ T-cells + 15,000 immature or mature dendritic cells + Aredia 10 μM, versus γδ T-cells alone, γδ T-cells with Aredia only, FIG. 2
Method: In each well of a MultiScreen plate (Millipore), 70% ethanol was added and removed within two minutes.
An anti-interferon(IFN)-γ antibody for coating (clone: 1-D1K, MABTECH ELISpot for Human Interferon-γ kit) was diluted with PBS to 15 μg/ml, and added 100 μl/well.
The γδ T-cells obtained in Example 4 were collected by centrifugation and washed twice with AIM-V.
To 30,000 of the γδ T-cells collected, and 15,000 of the immature or mature dendritic cells obtained in Example 1 Aredia, prepared to have a final concentration of 10 μM, was added, and precultivated in a 15 ml tube (Falcon) under the conditions of 37° C. and 5% CO2 for two hours. At the same time, precultivation of γδ T-cells by themselves, precultivation of γδ T-cells with only Aredia added thereto, and precultivation of the respective dendritic cells by themselves were also conducted. Each culture volume was adjusted to 300 μl.
The plate was washed with PBS after blocking, and each group of cells which completed precultivation under the respective conditions was disseminated in three wells, 100 μl/well.
They were cultured overnight under the conditions of 37° C. and 5% CO2. […]
After confirming that the membrane on the plate was dry, the number of spots was measured using an ELISpot reader (AID Autoimmune Diagnostika GmbH), and the data was analyzed using the AID software version 3.1 (AID).

NCCC(O)(P(=O)([O-])O)P(=O)([O-])O.O.O.O.O.O.[Na+].[Na+] [Aredia, pamidronate disodium pentahydrate]
γδ T-cells in the cultured cell subset (γδ T-cells [1]): at least 95%
number of spots (IFN-γ ELISpot) (γδ T-cells [2]): increased only when the dendritic cells and Aredia were added simultaneously to the γδ T-cells
spot intensity (IFN-γ ELISpot) (γδ T-cells [2]): increased only when the dendritic cells and Aredia were added simultaneously to the γδ T-cells
